From PubChem BioAssay AID330 (DTP/NCI, 2004)
Where “and” joins values, the source holds several entries; their conditions need not be identical. Equal values may be shown once. Toxic doses and inconclusive results are not listed. Numbered stars: 1 amine (or outer) side, 2 acyl side, 3 side chain; on linkers, the order of the positions; unused ones are H or OH. Bridge positions count the residues as written; N and C are the ends. Square brackets hold non-standard residues; d marks the D form. Peptide text beside a SMILES is read from it. ξ: configuration not given here. X1 = CC[C@@H](C)[C@H](N[*:1])[C@H](O)CC(=O)OC(C(=O)C(C)C(=O)[*:2])C(C)C; ξNMeY = CNC(Cc1ccc(O)cc1)C(=O)O; ξNMeL = CNC(CC(C)C)C(=O)O; ξL = CC(C)CC(N)C(=O)O; ξT = CC(O)C(N)C(=O)O; ξP = O=C(O)C1CCCN1

System: P388 leukemia ip, CD2F1 mice, survival T/C
Assay: NCI In Vivo Anticancer Drug Screen. Data for tumor model P388 Leukemia (intraperitoneal) in CD2F1 (CDF1) mice
Settings: endpoint: median survival time, higher = longer survival
Method in brief: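 Mice carrying the transplanted tumor received test compound or vehicle. Survival was recorded in each group, and the value is the treated-group measurement divided by that of the vehicle-treated control group.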

[1] = dose: 50.0 mg/kg/injection, schedule: Q01DX005 (ip), vehicle: Klucel (hydroxypropylcellulose) (HPC)
[2] = dose: 100.0 mg/kg/injection, schedule: Q01DX005 (ip), vehicle: Klucel (hydroxypropylcellulose) (HPC)
[3] = dose: 200.0 mg/kg/injection, schedule: Q01DX005 (ip), vehicle: Klucel (hydroxypropylcellulose) (HPC)
[4] = dose: 60.0 mg/kg/injection, schedule: Q01DX005 (ip), vehicle: saline with Tween-80
[5] = dose: 120.0 mg/kg/injection, schedule: Q01DX005 (ip), vehicle: saline with Tween-80
[6] = dose: 240.0 mg/kg/injection, schedule: Q01DX005 (ip), vehicle: saline with Tween-80
[7] = dose: 50.0 mg/kg/injection, schedule: Q01DX009 (ip), vehicle: saline
[8] = dose: 100.0 mg/kg/injection, schedule: Q01DX009 (ip), vehicle: saline
[9] = dose: 25.0 mg/kg/injection, schedule: Q01DX001 (ip), vehicle: saline with Tween-80
[10] = dose: 50.0 mg/kg/injection, schedule: Q01DX001 (ip), vehicle: saline with Tween-80
[11] = dose: 100.0 mg/kg/injection, schedule: Q01DX001 (ip), vehicle: saline with Tween-80
[12] = dose: 200.0 mg/kg/injection, schedule: Q01DX009 (ip), vehicle: saline
[13] = dose: 50.0 mg/kg/injection, schedule: Q01DX009 (ip), vehicle: saline with Tween-80
[14] = dose: 100.0 mg/kg/injection, schedule: Q01DX009 (ip), vehicle: saline with Tween-80
[15] = dose: 200.0 mg/kg/injection, schedule: Q01DX009 (ip), vehicle: saline with Tween-80
[16] = dose: 50.0 mg/kg/injection, schedule: Q01DX009 (ip), vehicle: Klucel (hydroxypropylcellulose) (HPC)
[17] = dose: 100.0 mg/kg/injection, schedule: Q01DX009 (ip), vehicle: Klucel (hydroxypropylcellulose) (HPC)
[18] = dose: 200.0 mg/kg/injection, schedule: Q01DX009 (ip), vehicle: Klucel (hydroxypropylcellulose) (HPC)

Structure (SMILES): CCc1nn2c(=O)nc(SC)nc2s1
- T/C (dose: 12.5 mg/kg/injection, schedule: Q04DX003 (ip), vehicle: saline with Tween-80): 102 % of control
- T/C (dose: 25.0 mg/kg/injection, schedule: Q04DX003 (ip), vehicle: saline with Tween-80): 100 % of control
- T/C (dose: 50.0 mg/kg/injection, schedule: Q04DX003 (ip), vehicle: saline with Tween-80): 102 % of control

Structure (SMILES): CCCCCCCCCCCCOC(=O)/C=C\C(=O)NC(N)=O
- T/C (dose: 100.0 mg/kg/injection, schedule: Q04DX002 (ip), vehicle: Klucel (hydroxypropylcellulose) (HPC)): 117 % of control
- T/C (dose: 200.0 mg/kg/injection, schedule: Q04DX002 (ip), vehicle: Klucel (hydroxypropylcellulose) (HPC)): 123 % of control

Structure (SMILES): CC(=O)CNc1ccccc1C(N)=O
- T/C [1]: 101 % of control
- T/C [2]: 95 % of control
- T/C [3]: 104 % of control

Structure (SMILES): CN(C)c1ccc(C2N(C)CCN2C)cc1
- T/C [4]: 93 % of control
- T/C [5]: 99 % of control
- T/C [6]: 103 % of control

Structure (SMILES): COc1ccc(OC)c(N=Cc2ccc(C=Nc3cc(OC)ccc3OC)cc2)c1
- T/C [7]: 101 % of control
- T/C [8]: 101 % of control

Structure (SMILES): CCOC(=O)c1cc[nH]c1CC(=O)NC
- T/C [9]: 98 % of control and 107 % of control
- T/C [10]: 102 % of control and 105 % of control
- T/C [11]: 103 % of control and 113 % of control
- T/C (dose: 200.0 mg/kg/injection, schedule: Q01DX001 (ip), vehicle: saline with Tween-80): 113 % of control and 116 % of control

Structure (SMILES): Cc1ccc(NCCNCCO)c2c1C(=O)c1ccccc1C2=O
- T/C (dose: 25.0 mg/kg/injection, schedule: Q01DX009 (ip), vehicle: saline): 100 % of control and 87 % of control
- T/C [7]: 99 % of control and 89 % of control
- T/C (dose: 50.0 mg/kg/injection, schedule: Q01DX009 (ip), vehicle: suspension in saline): 116 % of control
- T/C [8]: 101 % of control and 90 % of control
- T/C (dose: 100.0 mg/kg/injection, schedule: Q01DX009 (ip), vehicle: suspension in saline): 122 % of control
- T/C [12]: 87 % of control and 95 % of control
- T/C (dose: 200.0 mg/kg/injection, schedule: Q01DX009 (ip), vehicle: suspension in saline): 151 % of control

Structure (SMILES): COc1cc(C(=O)N/N=C/c2cccc([N+](=O)[O-])c2)cc(OC)c1OC
- T/C [13]: 102 % of control and 115 % of control
- T/C [14]: 123 % of control
- T/C [15]: 163 % of control
- T/C (dose: 400.0 mg/kg/injection, schedule: Q01DX009 (ip), vehicle: saline with Tween-80): 168 % of control

Structure (SMILES): CC(C)C[CH2][Pb]([Cl])([CH2]CC(C)C)[CH2]CC(C)C
- T/C (dose: 0.06 mg/kg/injection, schedule: Q01DX009 (ip), vehicle: saline + alcohol): 103 % of control
- T/C (dose: 0.13 mg/kg/injection, schedule: Q01DX009 (ip), vehicle: saline + alcohol): 108 % of control
- T/C (dose: 0.25 mg/kg/injection, schedule: Q01DX009 (ip), vehicle: saline + alcohol): 105 % of control
- T/C (dose: 0.5 mg/kg/injection, schedule: Q01DX009 (ip), vehicle: saline + alcohol): 119 % of control
- T/C (dose: 1.0 mg/kg/injection, schedule: Q01DX009 (ip), vehicle: saline + alcohol): 118 % of control
- T/C (dose: 2.0 mg/kg/injection, schedule: Q01DX009 (ip), vehicle: saline): 111 % of control
- T/C (dose: 4.0 mg/kg/injection, schedule: Q01DX009 (ip), vehicle: saline): 110 % of control
- T/C (dose: 8.0 mg/kg/injection, schedule: Q01DX009 (ip), vehicle: saline): 100 % of control

Structure (SMILES): CC[C@@H](C)[C@@H]1NC(=O)C(NC(=O)C(CC(C)C)NC)C(C)OC(=O)C(Cc2ccc(OC)cc2)N(C)C(=O)C2CCCN2C(=O)C(CC(C)C)NC(=O)C(C)C(=O)C(C(C)C)OC(=O)C[C@H]1O (stereo partly specified) (H-[ξNMeL][ξT][X1][ξL][ξP][ξNMeY](Me); ester 2-C)
- T/C (dose: 0.06 mg/kg/injection, schedule: Q01DX005 (ip), vehicle: water): 104 % of control
- T/C (dose: 0.13 mg/kg/injection, schedule: Q01DX005 (ip), vehicle: water): 112 % of control
- T/C (dose: 0.25 mg/kg/injection, schedule: Q01DX005 (ip), vehicle: water): 114 % of control
- T/C (dose: 0.5 mg/kg/injection, schedule: Q01DX005 (ip), vehicle: saline + alcohol): 113 % of control
- T/C (dose: 1.0 mg/kg/injection, schedule: Q01DX005 (ip), vehicle: saline + alcohol): 124 % of control
- T/C (dose: 2.0 mg/kg/injection, schedule: Q01DX005 (ip), vehicle: water): 150 % of control
- T/C (dose: 0.25 micrograms/kg/injection, schedule: Q01DX005 (ip), vehicle: saline + alcohol): 106 % of control
- T/C (dose: 0.5 micrograms/kg/injection, schedule: Q01DX005 (ip), vehicle: saline + alcohol): 110 % of control
- T/C (dose: 1.0 micrograms/kg/injection, schedule: Q01DX005 (ip), vehicle: saline + alcohol): 96 % of control
- T/C (dose: 2.0 micrograms/kg/injection, schedule: Q01DX005 (ip), vehicle: saline + alcohol): 100 % of control

Structure (SMILES): O=c1oc2c(ccc3c(O)cccc32)c2c1CCCC2
- T/C [1]: 105 % of control
- T/C [2]: 102 % of control
- T/C [3]: 93 % of control

Structure (SMILES): CC(=O)OC1=CC2C(OC1=O)C1C=CC2(OC(C)=O)C(=O)O1 (stereo unspecified)
- T/C [13]: 102 % of control
- T/C [14]: 104 % of control
- T/C [15]: 113 % of control

Structure (SMILES): CC(C)(C)NC(=O)C(F)(F)C(F)(F)C(F)(F)C(=O)NC(C)(C)C
- T/C (dose: 100.0 mg/kg/injection, schedule: Q04DX003 (ip), vehicle: saline): 91 % of control
- T/C (dose: 200.0 mg/kg/injection, schedule: Q04DX003 (ip), vehicle: saline): 100 % of control
- T/C (dose: 400.0 mg/kg/injection, schedule: Q04DX003 (ip), vehicle: saline): 99 % of control

Structure (SMILES): COC1=CCC=C(C(C)(C)C)C1
- T/C [4]: 98 % of control
- T/C [5]: 94 % of control
- T/C [6]: 103 % of control

Structure (SMILES): CCN(CC)c1c(C)c(C(=O)OC)nn1-c1ccccc1
- T/C [4]: 107 % of control
- T/C [5]: 104 % of control
- T/C [6]: 96 % of control

Structure (SMILES): O=C(CC([Se]c1ccccc1)c1ccccc1)c1ccccc1 (stereo unspecified)
- T/C [13]: 109 % of control
- T/C [14]: 109 % of control
- T/C [15]: 95 % of control

Structure (SMILES): O=c1c2cc3c(=O)n(CC[P+](c4ccccc4)(c4ccccc4)c4ccccc4)c(=O)c3cc2c(=O)n1CC[P+](c1ccccc1)(c1ccccc1)c1ccccc1
- T/C (dose: 0.78 mg/kg/injection, schedule: Q01DX009 (ip), vehicle: water): 99 % of control
- T/C (dose: 1.56 mg/kg/injection, schedule: Q01DX009 (ip), vehicle: water): 97 % of control
- T/C (dose: 3.13 mg/kg/injection, schedule: Q01DX009 (ip), vehicle: water): 93 % of control

Structure (SMILES): NS(=O)(=O)c1c[nH]c(=O)[nH]c1=O
- T/C [16]: 105 % of control
- T/C [17]: 93 % of control
- T/C [18]: 97 % of control
- T/C (dose: 400.0 mg/kg/injection, schedule: Q01DX009 (ip), vehicle: Klucel (hydroxypropylcellulose) (HPC)): 91 % of control

Structure (SMILES): O=c1[nH][nH]c(O)c1-c1ccc(-c2c(O)[nH][nH]c2=O)cc1
- T/C [1]: 105 % of control
- T/C [2]: 105 % of control
- T/C [3]: 101 % of control

Structure (SMILES): O=C(NC(COC1OC(CO)C(O)C(O)C1O)C(O)c1ccccc1)c1ccccc1 (stereo unspecified)
- T/C [16]: 107 % of control
- T/C [7]: 90 % of control
- T/C [17]: 108 % of control
- T/C [8]: 102 % of control
- T/C [18]: 113 % of control
- T/C [12]: 108 % of control

Structure (SMILES): Cn1c2ccc([N+](=O)[O-])cc2c(=O)c2c(O)cc3c(c21)C=CC(C)(C)O3
- T/C [9]: 97 % of control
- T/C [10]: 97 % of control
- T/C [11]: 89 % of control and 95 % of control

Structure (SMILES): Cc1ccccc1C1OC2=C(Nc3ccc(Cl)cc3N2)C1=O (stereo unspecified)
- T/C (dose: 60.0 mg/kg/injection, schedule: Q01DX005 (ip), vehicle: Klucel (hydroxypropylcellulose) (HPC)): 101 % of control
- T/C (dose: 120.0 mg/kg/injection, schedule: Q01DX005 (ip), vehicle: Klucel (hydroxypropylcellulose) (HPC)): 91 % of control
- T/C (dose: 240.0 mg/kg/injection, schedule: Q01DX005 (ip), vehicle: Klucel (hydroxypropylcellulose) (HPC)): 101 % of control

Structure (SMILES): C=C1C(=O)OC2/C=C(\C)CC(O)/C=C(/CO)CC(OC(=O)/C(C)=C/C)C12 (stereo unspecified)
- T/C (dose: 7.5 mg/kg/injection, schedule: Q01DX009 (ip), vehicle: saline + alcohol): 111 % of control
- T/C (dose: 10.0 mg/kg/injection, schedule: Q01DX009 (ip), vehicle: saline + alcohol): 121 % of control

Structure (SMILES): CCCCc1ccc(-n2c(C)nc3[nH]cc(C)c3c2=N)cc1
- T/C [1]: 96 % of control
- T/C [2]: 102 % of control
- T/C [3]: 97 % of control
